Target: T1, Recombinant human CD38 (Homo sapiens, UniProt P28907)
T1 sequence (P28907 1-300): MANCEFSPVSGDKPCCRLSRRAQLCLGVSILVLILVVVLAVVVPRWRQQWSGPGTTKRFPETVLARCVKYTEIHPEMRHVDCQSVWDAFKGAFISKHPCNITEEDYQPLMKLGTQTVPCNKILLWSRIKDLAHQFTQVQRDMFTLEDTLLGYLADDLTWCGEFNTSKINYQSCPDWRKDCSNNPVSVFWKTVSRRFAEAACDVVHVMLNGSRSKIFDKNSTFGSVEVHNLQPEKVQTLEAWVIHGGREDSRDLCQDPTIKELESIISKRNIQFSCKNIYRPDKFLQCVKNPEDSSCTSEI
Assay: Human CD38 hydrolase assay (fluorescence-based, ε-NAD substrate)
Type: biochemical
Settings: recombinant human CD38 0.8 nM, 4 μM ε-NAD, 30 min preincubation at 25° C.
In short: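 Recombinant human CD38 (0.8 nM) preincubated 30 min at 25 °C with compound in PBS without Ca2+/Mg2+, 0.005% BSA, pH 7.4; reaction started with 4 μM ε-NAD. Fluorescence (ex 300/em 410 nm) change over 10 min converted to percent inhibition against tool-inhibitor controls; IC50 from 10-point half-log curves, four-parameter fit.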

Row | Compound | IC50
1 | O=C(N[C@H]1CC[C@H](N2CC(F)(F)C2)CC1)c1cn2ncnc2c(-n2ccnc2)n1 [Example 45, N-((1r,4r)-4-(3,3-difluoroazetidin-1-yl)cyclohexyl)-8-(1H-imidazol-1-yl)-[1,2,4]triazolo[1,5-a]pyrazine-6-carboxamide] | ≤ 40 nM
2 | O=C(N[C@H]1CC[C@H](NCC(F)(F)F)CC1)c1nc(-n2ccnc2)nn2cccc12 [Example 29, 2-(1H-imidazol-1-yl)-N-((1r,4r)-4-((2,2,2-trifluoroethyl)amino)cyclohexyl)pyrrolo[2,1-f][1,2,4]triazine-4-carboxamide] | ≤ 40 nM
3 | O=C(N[C@H]1CC[C@H](NCC(F)(F)F)CC1)c1cn2ccnc2c(-n2ccnc2)n1 [Example 19, 8-(1H-imidazol-1-yl)-N-((1r,4r)-4-((2,2,2-trifluoroethyl)amino)cyclohexyl) imidazo[1,2-a]pyrazine-6-carboxamide] | ≤ 40 nM
4 | O=C(N[C@H]1CC[C@H](N2CC[C@H](F)C2)CC1)c1nc(-n2ccnc2)nn2cccc12 [Example 13, N-((1S,4r)-4-((S)-3-fluoropyrrolidin-1-yl)cyclohexyl)-2-(1H-imidazol-1-yl)pyrrolo[2,1-f][1,2,4]triazine-4-carboxamide] | ≤ 40 nM
5 | O=C(N[C@H]1CC[C@H](N2CCC(F)(F)C2)CC1)c1nc(-n2ccnc2)nn2cccc12 [Example 12, N-((1r,4r)-4-(3,3-difluoropyrrolidin-1-yl)cyclohexyl)-2-(1H-imidazol-1-yl)pyrrolo[2,1-f][1,2,4]triazine-4-carboxamide] | ≤ 40 nM
6 | O=C(N[C@H]1CC[C@H](N2CCC(F)(F)C2)CC1)c1cn2ccnc2c(-n2ccnc2)n1 [Example 41, N-((1r,4r)-4-(3,3-difluoropyrrolidin-1-yl)cyclohexyl)-8-(1H-imidazol-1-yl) imidazo[1,2-a]pyrazine-6-carboxamide] | ≤ 100 nM
7 | O=C(N[C@H]1CC[C@H](NCC(F)(F)F)CC1)c1cn2nccc2c(-n2ccnc2)n1 [Example 21, 4-(1H-imidazol-1-yl)-N-((1r,4r)-4-((2,2,2-trifluoroethyl)amino)cyclohexyl)pyrazolo[1,5-a]pyrazine-6-carboxamide] | ≤ 40 nM

Second part, the compound after the results:

Row | IC50 | Compound
8 | ≤ 100 nM | O=C(N[C@H]1CC[C@H](N2CCC(F)(F)C2)CC1)c1cn2ncnc2c(-n2ccnc2)n1 [Example 48, N-((1r,4r)-4-(3,3-difluoropyrrolidin-1-yl)cyclohexyl)-8-(1H-imidazol-1-yl)-[1,2,4]triazolo[1,5-a]pyrazine-6-carboxamide]
9 | ≤ 40 nM | O=C(N[C@H]1CC[C@H](NCC(F)(F)F)CC1)c1nc(-n2ccnc2)nc2ncccc12 [Example 4, 2-(1H-imidazol-1-yl)-N-((1r,4r)-4-((2,2,2-trifluoroethyl)amino)cyclohexyl)pyrido[2,3-d]pyrimidine-4-carboxamide]
10 | ≤ 40 nM | O=C(N[C@H]1CC[C@H](N2CC[C@@H](F)C2)CC1)c1nc(-n2ccnc2)nn2cccc12 [Example 14, N-((1R,4r)-4-((R)-3-fluoropyrrolidin-1-yl)cyclohexyl)-2-(1H-imidazol-1-yl)pyrrolo[2,1-f][1,2,4]triazine-4-carboxamide]
11 | ≤ 40 nM | O=C(N[C@H]1CC[C@H](NCC(F)(F)F)CC1)c1cn2ncnc2c(-n2ccnc2)n1 [Example 20, 8-(1H-imidazol-1-yl)-N-((1r,4r)-4-((2,2,2-trifluoroethyl)amino)cyclohexyl)-[1,2,4]triazolo[1,5-a]pyrazine-6-carboxamide]
